For assay [1], the target named is T1, EGFR mutant T790M (Homo sapiens, UniProt P00533, T790M).
T1 construct: truncated human JAK3, EGFR mutants such as del E746-A750; purchased Carna Biosciences
The assay can be described thus: Kinase inhibition assay, EGFR mutant T790M.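 Also: truncated human EGFR mutant enzyme preincubated two hours with compound, then ATP plus ULight-PolyGT peptide for one hour, Europium-labeled antibody LANCE detection, IC50.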 The settings on record: biochemical potency.

Assay [2] concerns the target T2, SYK (Homo sapiens, UniProt P43405).
T2 construct: Purified human, full-length SYK, KDR; purchased Carna Biosciences
The assay can be described thus: Kinase inhibition assay, SYK.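 Also: purified full-length human SYK pre-incubated 30 min with compound, then ULight-TK peptide phosphorylation for 1 h, detected with Europium-labeled antibody in Lance buffer.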 The class given is biochemical. The settings on record: biochemical potency.

Assay [3] has as its target T3, EGFR mutant L858R/T790M (Homo sapiens, UniProt P00533, L858R/T790M).
T3 construct: truncated human JAK3, EGFR mutants such as del E746-A750; purchased Carna Biosciences
Kind of assay: Kinase inhibition assay, EGFR L858R/T790M.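 Also: truncated human enzyme preincubated two hours with compound, then one hour with one millimolar ATP and ULight-PolyGT peptide, Europium-labeled antibody detection, IC50.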 The class given is biochemical. The settings on record: read-out: EGFR mutants L858R/T790M.

Assay [4] addresses T4, EGFR mutant Del19 (E746-A750) (Homo sapiens, UniProt P00533, DEL746-750).
T4 construct: truncated human JAK3, EGFR mutants such as del E746-A750; purchased Carna Biosciences
The assay can be described thus: Kinase inhibition assay, EGFR del E746-A750.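 Also: truncated human EGFR mutant kinase, two-hour preincubation with compound, then one-hour reaction with ATP and ULight-PolyGT peptide, LANCE Europium-antibody phosphorylation readout, IC50.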 The format is biochemical. The settings on record: read-out: EGFR mutants Del19 (E746-A750).

Assay [5] addresses T5, EGFR mutant L858R (Homo sapiens, UniProt P00533, L858R).
T5 construct: truncated human JAK3, EGFR mutants such as del E746-A750; purchased Carna Biosciences
Kind of assay: Kinase inhibition assay, EGFR L858R.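 Also: truncated human EGFR L858R kinase with compound preincubation, ULight-PolyGT peptide phosphorylation read by Europium-antibody Lance detection, IC50.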 The format is biochemical. The settings on record: read-out: EGFR mutants L858R.

Assay [6] concerns the target T6, EGFR mutant Del19/T790M (Homo sapiens, UniProt P00533, DEL746-750/T790M).
T6 construct: truncated human JAK3, EGFR mutants such as del E746-A750; purchased Carna Biosciences
The assay can be described thus: Kinase inhibition assay, EGFR del E746-A750/T790M. The format is biochemical. The settings on record: read-out: EGFR mutants Del19/T790M.

The text below walks through data of patent USRE50528E1, “Compounds and compositions for modulating EGFR mutant kinase activities” (Yuhan Corporation, priority 2014, dated 2025).

Where two headings read alike, the source gives them in different places.

Turning to `C=CC(=O)Nc1cc(Nc2ncc(C)c(-n3cc(CN4CC(O)C4)c(C)n3)n2)c(OC)cc1N1CCOCC1` [Compound 24, N-(5-(4-(4-((3-hydroxyazetidin-1-yl)methyl)-3-methyl-1H-pyrazol-1-yl)-5-methylpyrimidin-2-ylamino)-4-methoxy-2-morpholinophenyl)acrylamide], the IC50 was under 20 nM in assay [1] and 201 to 1000 nM in assay [2].

In the case of `C=CC(=O)Nc1cc(Nc2ncc(C)c(-n3cc(CN4CC[C@@H](O)C4)c(C)n3)n2)c(OC)cc1N1CCOCC1` [Compound 27, (R)—N-(5-(4-(4-((3-hydroxypyrrolidin-1-yl)methyl)-3-methyl-1H-pyrazol-1-yl)-5-methylpyrimidin-2-ylamino)-4-methoxy-2-morpholinophenyl)acrylamide], the IC50 in assay [1] was under 20 nM; in assay [2], over 1000 nM.

Consider `C=CC(=O)Nc1cc(Nc2nccc(-n3cc(CN4CC(O)C4)c(C)n3)n2)c(OC)cc1-c1cnn(C)c1` [Compound 58, N-(5-(4-(4-((3-hydroxyazetidin-1-yl)methyl)-3-methyl-1H-pyrazol-1-yl)pyrimidin-2-ylamino)-4-methoxy-2-(1-methyl-1H-pyrazol-4-yl)phenyl)acrylamide], for which the values for the IC50 in assay [1] and in assay [2] were 20 to 200 nM and 201 to 1000 nM, respectively.

As for `C=CC(=O)Nc1cc(Nc2ncc(F)c(-n3cc(CN4C[C@H](O)[C@H](OC)C4)c(C)n3)n2)c(OC)cc1N1CCOCC1` [Compound 61, N-(5-(5-fluoro-4-(4-(((3S,4R)-3-hydroxy-4-methoxypyrrolidin-1-yl)methyl)-3-methyl-1H-pyrazol-1-yl)pyrimidin-2-ylamino)-4-methoxy-2-morpholinophenyl)acrylamide], the IC50 in assay [3] is 20 to 200 nM; in assay [1], under 20 nM; in assay [4], 20 to 200 nM; in assay [5] it was 20 to 200 nM; in assay [2], over 1000 nM.

Take `C=CC(=O)Nc1cc(Nc2ncc(C)c(-n3cc(CN4CCC4)cn3)n2)c(OC(C)C)cc1N1CCOCC1` [Compound 63, N-(5-(4-(4-(azetidin-1-ylmethyl)-1H-pyrazol-1-yl)-5-methylpyrimidin-2-ylamino)-4-isopropoxy-2-morpholinophenyl)acrylamide]: the IC50 in assay [3] is 20 to 200 nM; in assay [1], 20 to 200 nM; in assay [4] it was 20 to 200 nM; in assay [5], 201 to 1000 nM; in assay [2], over 1000 nM.

`C=CC(=O)Nc1cc(Nc2nccc(-n3cc(CO)c(C)n3)n2)c(OC)cc1N1CCOCC1` [Compound 66, N-(5-(4-(4-(hydroxymethyl)-3-methyl-1H-pyrazol-1-yl)pyrimidin-2-ylamino)-4-methoxy-2-morpholinophenyl)acrylamide]: the IC50 in assay [3] was under 20 nM; in assay [1], 20 to 200 nM; in assay [4], under 20 nM; in assay [5], 20 to 200 nM; in assay [2], over 1000 nM.

In the case of `C=CC(=O)Nc1cc(Nc2nccc(-n3nc(C)c(CN4CCC4)c3C)n2)c(OC)cc1N1CCOCC1` [Compound 70, N-(5-(4-(4-(azetidin-1-ylmethyl)-3,5-dimethyl-1H-pyrazol-1-yl)pyrimidin-2-ylamino)-4-methoxy-2-morpholinophenyl)acrylamide], the IC50 in assay [3], in assay [6], in assay [4] and in assay [5] was 20 to 200 nM in each case.

Take `C=CC(=O)Nc1cc(Nc2nccc(-n3cc(CN4CCC4)c(C(C)(C)C)n3)n2)c(OC)cc1N(C)CCOC` [Compound 101, N-(5-(4-(4-(azetidin-1-ylmethyl)-3-tert-butyl-1H-pyrazol-1-yl)pyrimidin-2-ylamino)-4-methoxy-2-((2-methoxyethyl)(methyl)amino)phenyl)acrylamide]: the IC50 is under 20 nM in assay [3]; under 20 nM in assay [1]; under 20 nM in assay [4]; under 20 nM in assay [5]; over 1000 nM in assay [2].

In the case of `C=CC(=O)Nc1cc(Nc2nccc(-n3cc(CN(C)C)c(C(C)(C)C)n3)n2)c(OC)cc1N(C)C1COC1` [Compound 102, N-(5-(4-(3-tert-butyl-4-((dimethylamino)methyl)-1H-pyrazol-1-yl)pyrimidin-2-ylamino)-4-methoxy-2-(methyl(oxetan-3-yl)amino)phenyl)acrylamide], the IC50 is under 20 nM in assay [3]; under 20 nM in assay [1]; under 20 nM in assay [4]; under 20 nM in assay [5]; over 1000 nM in assay [2].

Regarding `C=CC(=O)Nc1cc(Nc2nccc(-n3cc(CN(C)C)c(C(C)(C)C)n3)n2)c(OC)cc1N1CCCC1` [Compound 104, N-(5-(4-(3-tert-butyl-4-((dimethylamino)methyl)-1H-pyrazol-1-yl)pyrimidin-2-ylamino)-4-methoxy-2-(pyrrolidin-1-yl)phenyl)acrylamide], the IC50 in assay [1] is under 20 nM; in assay [2], over 1000 nM.

Turning to `C=CC(=O)Nc1cc(Nc2nccc(-n3cc(CN4CCC4)c(C(C)(C)C)n3)n2)c(OC)cc1N1CCCC1` [Compound 105, N-(5-(4-(4-(azetidin-1-ylmethyl)-3-tert-butyl-1H-pyrazol-1-yl)pyrimidin-2-ylamino)-4-methoxy-2-(pyrrolidin-1-yl)phenyl)acrylamide], the IC50 was 20 to 200 nM in assay [1] and over 1000 nM in assay [2].

For `C=CC(=O)Nc1cc(Nc2nccc(-n3cc(CN4CCC4)c(C4CC4)n3)n2)c(OC)cc1N1CCCC1` [Compound 111, N-(5-(4-(4-(azetidin-1-ylmethyl)-3-cyclopropyl-1H-pyrazol-1-yl)pyrimidin-2-ylamino)-4-methoxy-2-(pyrrolidin-1-yl)phenyl)acrylamide], the IC50 in assay [1] was 20 to 200 nM; in assay [2], over 1000 nM.

On to `C=CC(=O)Nc1cc(Nc2nccc(-n3cc(CN(C)C)c(C(C)C)n3)n2)c(OC)cc1N1CCCC1` [Compound 116, N-(5-(4-(4-((dimethylamino)methyl)-3-isopropyl-1H-pyrazol-1-yl)pyrimidin-2-ylamino)-4-methoxy-2-(pyrrolidin-1-yl)phenyl)acrylamide], for which the IC50 was under 20 nM in assay [1] and over 1000 nM in assay [2].

Turning to `C=CC(=O)Nc1cc(Nc2nccc(-n3cc(CN4CCC4)c(C(C)C)n3)n2)c(OC)cc1N1CCCC1` [Compound 117, N-(5-(4-(4-(azetidin-1-ylmethyl)-3-isopropyl-1H-pyrazol-1-yl)pyrimidin-2-ylamino)-4-methoxy-2-(pyrrolidin-1-yl)phenyl)acrylamide], the results for the IC50 in assay [1] and in assay [2] were under 20 nM and over 1000 nM, respectively.

Take `C=CC(=O)Nc1cc(Nc2ncc(F)c(-n3cc(C)c(CN(C)C)c3)n2)c(OC)cc1N(C)C` [Compound 143, N-(2-(dimethylamino)-5-(4-(3-((dimethylamino)methyl)-4-methyl-1H-pyrrol-1-yl)-5-fluoropyrimidin-2-ylamino)-4-methoxyphenyl)acrylamide]: the IC50 in assay [1] is under 20 nM; in assay [2], 201 to 1000 nM.

“N-(5-(4-(4-(azetidin-1-ylmethyl)-3-methyl-1H-pyrazol-1-yl)pyrimidin-2-ylamino)-4-methoxy-2-(1H-pyrazol-1-yl)phenyl)acrylamide [Compound 53]”: the IC50 is 20 to 200 nM in assay [3] (biochemical potency, 1 mM ATP); 20 to 200 nM in assay [1]; 20 to 200 nM in assay [5] (biochemical potency, 1 mM ATP); over 1000 nM in assay [2].
